Each structure is given as a SMILES string.

The experiment concerns the target HSP90 (Homo sapiens, UniProt P07900). Put plainly: HSP90 inhibition (HSP90 IC50). The format is biochemical.
One may read the IC50 as the concentration that gives 50% inhibition. Turning to `CC(C)[C@H](C)Nc1cc(C(=O)NC2CC3CCC(C2)N3c2ccc(C(=O)C3CC3)cn2)c(Br)cc1C(N)=O` (stereo partly drawn) [2-bromo-N-{8-[5-(cyclopropylcarbonyl)pyridin-2-yl]-8-azabicyclo[3.2.1]oct-3-endo-yl}-5-{[(1S)-1,2-dimethylpropyl]amino}benzene-1,4-dicarboxamide], the IC50 was less than 500 nM.

As to `COc1cccc(C(=O)N[C@H]2C[C@H]3CC[C@@H](C2)N3c2ccc(C(=O)NC3CCCCC3)cn2)c1C` [N-cyclohexyl-6-[3-endo-({[2-methyl-3-(methyloxy)phenyl]carbonyl}amino)-8-azabicyclo[3.2.1]oct-8-yl]pyridine-3-carboxamide], the IC50 lay in the range of 500 to 999 nM.

Take `CC[C@@H](C)Nc1cc(C(=O)NC2CC3CCC(C2)N3c2ccc(C(=O)C3CC3)cn2)ccc1C(N)=O` (stereo partly drawn) [N4-{8-[5-(cyclopropylcarbonyl)pyridin-2-yl]-8-azabicyclo[3.2.1]oct-3-endo-yl}-2-{[(1R)-1-methylpropyl]amino}benzene-1,4-dicarboxamide]: the IC50 is less than 500 nM.

With `COc1cccc(C(=O)N[C@H]2C[C@H]3CC[C@@H](C2)N3c2ccc(C(=O)NCc3ccc(C)cc3)cn2)c1C` [6-[3-endo-({(2-methyl-3-(methyloxy)phenyl]carbonyl}amino)-8-azabicyclo[3.2.1]oct-8-yl]-N-[(4-methylphenyl)methyl]pyridine-3-carboxamide], the IC50 was less than 500 nM.

In turn, `COc1cccc(C(=O)N[C@H]2C[C@H]3CC[C@@H](C2)N3c2ccc(C(=O)NC3CCC3)cn2)c1C` [N-cyclobutyl-6-[3-endo-({[2-methyl-3-(methyloxy)phenyl]carbonyl}amino)-8-azabicyclo[3.2.1]oct-8-yl]pyridine-3-carboxamide] yielded a 50% inhibitory concentration (IC50) of 500 to 999 nM.

For `CC(=O)c1ccc(N2[C@@H]3CC[C@H]2C[C@@H](NC(=O)c2ccc(C(N)=O)c(NC4CCCC4)c2)C3)nc1` [N4-[8-(5-acetylpyridin-2-yl)-8-azabicyclo[3.2.1]oct-3-endo-yl]-2-(cyclopentylamino)benzene-1,4-dicarboxamide], the half-maximal inhibitory concentration (IC50) was less than 500 nM.

Take `NC(=O)c1ccc(C(=O)N[C@H]2C[C@H]3CC[C@@H](C2)N3c2ccc(C(=O)CCC3CCNCC3)cn2)cc1NCC1CC1` [2-[(cyclopropylmethyl)amino]-N4-{8-[5-(3-piperidin-4-ylpropanoyl)pyridin-2-yl]-8-azabicyclo[3.2.1]oct-3-endo-yl}benzene-1,4-dicarboxamide]: the IC50 is less than 500 nM.

`CCc1cc(C(=O)N[C@H]2C[C@H]3CC[C@@H](C2)N3c2ccc(C(=O)C3CC3)cn2)c(C)cc1C(N)=O` [N-{8-[5-(cyclopropylcarbonyl)pyridin-2-yl]-8-azabicyclo[3.2.1]oct-3-endo-yl}-5-ethyl-2-methylbenzene-1,4-dicarboxamide] had an IC50 of less than 500 nM.

As for `COc1cccc(C(=O)NC2CC3CCC(C2)N3c2ccc(C(=O)NC(C)c3ccc(Br)cc3F)cn2)c1C` (stereo not drawn) [N-[1-(4-bromo-2-fluorophenyl)ethyl]-6-[3-endo-({[2-methyl-3-(methyloxy)phenyl]carbonyl}amino)-8-azabicyclo[3.2.1]oct-8-yl]pyridine-3-carboxamide], the IC50 fell in the range of 2000 to 10000 nM.

With `CC(=O)c1ccc(N2[C@@H]3CC[C@H]2C[C@@H](NC(=O)c2ccc(C(N)=O)c(NCC(F)(F)C(F)(F)C(F)(F)F)c2)C3)nc1` [N4-[8-(5-acetylpyridin-2-yl)-8-azabicyclo[3.2.1]oct-3-endo-yl]-2-[(2,2,3,3,4,4,4-heptafluorobutyl)amino]benzene-1,4-dicarboxamide], the IC50 was 500 to 999 nM.

Take `Cc1cc(C(=O)N[C@H]2C[C@H]3CC[C@@H](C2)N3c2ccc(C(=O)NC3CN(C(C)C)C3)cn2)c(C)cc1C(N)=O` [2,5-dimethyl-N-{8-[5-({[1-(1-methylethyl)azetidin-3-yl]amino}carbonyl)pyridin-2-yl]-8-azabicyclo[3.2.1]oct-3-endo-yl}benzene-1,4-dicarboxamide]: the IC50 is less than 500 nM.

Turning to `Cc1cc(C(N)=O)cc(C)c1C(=O)N[C@H]1C[C@H]2CC[C@@H](C1)N2c1ccc(C(=O)NCc2ccccc2)cn1` [2,6-dimethyl-N1-[8-(5-{[(phenylmethyl)amino]carbonyl}pyridin-2-yl)-8-azabicyclo[3.2.1]oct-3-endo-yl]benzene-1,4-dicarboxamide], the IC50 was 500 to 999 nM.

`Cc1cc(CO)ccc1C(=O)N[C@H]1C[C@H]2CC[C@@H](C1)N2c1ccc(C(=O)NCc2cccnc2)cn1` [6-[3-endo-({[4-(hydroxymethyl)-2-methylphenyl]carbonyl}amino)-8-azabicyclo[3.2.1]oct-8-yl]-N-(pyridin-3-ylmethyl)pyridine-3-carboxamide] showed an IC50 of less than 500 nM.

In the case of `COc1cccc(C(=O)N[C@H]2C[C@H]3CC[C@@H](C2)N3c2ccc(C(=O)Nc3ccccc3C)cn2)c1C` [6-[3-endo-({[2-methyl-3-(methyloxy)phenyl]carbonyl}amino)-8-azabicyclo[3.2.1]oct-8-yl]-N-(2-methylphenyl)pyridine-3-carboxamide], the IC50 was in the range of 2000 to 10000 nM.

Take `COc1cccc(C(=O)N[C@H]2C[C@H]3CC[C@@H](C2)N3c2ccc(C(=O)NCc3ccc(Br)cc3)cn2)c1C` [N-[(4-bromophenyl)methyl]-6-[3-endo-({[2-methyl-3-(methyloxy)phenyl]carbonyl}amino)-8-azabicyclo[3.2.1]oct-8-yl]pyridine-3-carboxamide]: the IC50 fell in the range of 500 to 999 nM.

In the case of `COc1cccc(C(=O)N[C@H]2C[C@H]3CC[C@@H](C2)N3c2ccc(C(=O)NO)cn2)c1C` [N-hydroxy-6-[3-endo-({[2-methyl-3-(methyloxy)phenyl]carbonyl}amino)-8-azabicyclo[3.2.1]oct-8-yl]pyridine-3-carboxamide], the IC50 is 2000 to 10000 nM.

With `COc1cccc(C(=O)N[C@H]2C[C@H]3CC[C@@H](C2)N3c2ccc(C(=O)NCC3CC3)cn2)c1C` [N-(cyclopropylmethyl)-6-[3-endo-({[2-methyl-3-(methyloxy)phenyl]carbonyl}amino)-8-azabicyclo[3.2.1]oct-8-yl]pyridine-3-carboxamide], the IC50 was 500 to 999 nM.

As to `Cc1cc(C(=O)N[C@H]2C[C@H]3CC[C@@H](C2)N3c2ccc(C(=O)NC3CCN(C)CC3)cn2)c(C)cc1C(N)=O` [2,5-dimethyl-N-[8-(5-{[(1-methylpiperidin-4-yl)amino]carbonyl}pyridin-2-yl)-8-azabicyclo[3.2.1]oct-3-endo-yl]benzene-1,4-dicarboxamide], the IC50 was 500 to 999 nM.

The compound `COc1cccc(C(=O)N[C@H]2C[C@H]3CC[C@@H](C2)N3c2ccc(C(=O)NCCC(C)C)cn2)c1C` [N-(3-methylbutyl)-6-[3-endo-({[2-methyl-3-(methyloxy)phenyl]carbonyl}amino)-8-azabicyclo[3.2.1]oct-8-yl]pyridine-3-carboxamide] gave an IC50 of 1000 to 2000 nM.

In the case of `COc1cccc([C@H](C)NC(=O)c2ccc(N3C4CCC3CC(NC(=O)c3cccc(OC)c3C)C4)nc2)c1` (stereo partly drawn) [6-[3-endo-({[2-methyl-3-(methyloxy)phenyl]carbonyl}amino)-8-azabicyclo[3.2.1]oct-8-yl]-N-{(1S)-1-[3-(methyloxy)phenyl]ethyl}pyridine-3-carboxamide], the 50% inhibitory concentration (IC50) was less than 500 nM.

As for `NC(=O)c1ccc(C(=O)N[C@H]2C[C@H]3CC[C@@H](C2)N3c2ccc(C(=O)C(F)(F)F)cn2)cc1NCC1CC1` [2-[(cyclopropylmethyl)amino]-N4-{8-[5-(trifluoroacetyl)pyridin-2-yl]-8-azabicyclo[3.2.1]oct-3-endo-yl}benzene-1,4-dicarboxamide], the IC50 is 2000 to 10000 nM.

`COc1cccc(C(=O)N[C@H]2C[C@H]3CC[C@@H](C2)N3c2ccc(C(=O)NCc3cccs3)cn2)c1C` [6-[3-endo({[2-methyl-3-(methyloxy)phenyl]carbonyl}amino)-8-azabicyclo[3.2.1]oct-8-yl]-N-(2-thienylmethyl)pyridine-3-carboxamide] showed a concentration for half-maximal inhibition (IC50) of less than 500 nM.

Regarding `COc1cccc(C(=O)N[C@H]2C[C@H]3CC[C@@H](C2)N3c2ccc(C(=O)NCCCN3CCOCC3)cn2)c1C` [6-[3-endo-({[2-methyl-3-(methyloxy)phenyl]carbonyl}amino)-8-azabicyclo[3.2.1]oct-8-yl]-N-(3-morpholin-4-ylpropyl)pyridine-3-carboxamide], the IC50 was 500 to 999 nM.

In turn, `NC(=O)c1ccc(C(=O)N[C@H]2C[C@H]3CC[C@@H](C2)N3c2ccc(C(=O)CCC(F)(F)F)cn2)cc1NCC1CC1` [2-[(cyclopropylmethyl)amino]-N4-{8-[5-(4,4,4-trifluorobutanoyl)pyridin-2-yl]-8-azabicyclo[3.2.1]oct-3-endo-yl}benzene-1,4-dicarboxamide] registered an IC50 of 2000 to 10000 nM.

For `Cc1c(OC(N)=O)cccc1C(=O)N[C@H]1C[C@H]2CC[C@@H](C1)N2c1ccc(C(=O)NCc2ccccc2)cn1` [2-methyl-3-({[8-(5-{[(phenylmethyl)amino]carbonyl}pyridin-2-yl)-8-azabicyclo[3.2.1]oct-3-endo-yl]amino}carbonyl)phenyl carbamate], the IC50 lay within 2000 to 10000 nM.

Regarding `COc1cccc(C(=O)NC2CC3CCC(C2)N3c2ccc(C(=O)NC(C)c3ccccc3)cn2)c1C` (centres unmarked), the IC50 is less than 500 nM.

The compound `Cc1c(C(=O)NC2CC3CCC(C2)N3c2ccc(C(=O)N[C@@H](C)c3ccc(N4CCN(C)CC4)cc3)cn2)cccc1N(C)C` (stereo partly drawn) [6-[3-endo-({[3-(dimethylamino)-2-methylphenyl]carbonyl}amino)-8-azabicyclo[3.2.1]oct-8-yl]-N-{(1S)-1-[4-(4-methylpiperazin-1-yl)phenyl]ethyl}pyridine-3-carboxamide] displayed an IC50 of 2000 to 10000 nM.

`COc1cc(F)ccc1CNC(=O)c1ccc(N2[C@@H]3CC[C@H]2C[C@@H](NC(=O)c2cccc(OC)c2C)C3)nc1` [N-{[4-fluoro-2-(methyloxy)phenyl]methyl}-6-[3-endo-({[2-methyl-3-(methyloxy)phenyl]carbonyl}amino)-8-azabicyclo[3.2.1]oct-8-yl]pyridine-3-carboxamide]: the IC50 was in the range of 1000 to 2000 nM.

`COc1cccc(C(=O)NC2CC3CCC(C2)N3c2ccc(C(=O)N[C@@H](C)CO)cn2)c1C` (stereo partly drawn) [N-[(1S)-2-hydroxy-1-methylethyl]-6-[3-endo-({[2-methyl-3-(methyloxy)phenyl]carbonyl}amino)-8-azabicyclo[3.2.1]oct-8-yl]pyridine-3-carboxamide]: the IC50 lay in the range of 1000 to 2000 nM.
